Reference: patent publication EP1075186B1, “METHOD OF HSV PROPHYLAXIS” (The Children's Hospital Research Foundation, priority 1998, dated 1999)

Columns and labels:
[1] = tested on: human foreskin fibroblast (HFF) cell monolayers; experiment: Toxicity effects controls (sham-inoculated compound treated HFF monolayers); assay type: cell-based; details: for TOXICITY EFFECTS CONTROL: Experiment 4, Table 10
Description: Sham-incolulated, non-treated HFF cell monolayers were included along with the drug-treated monolayers as "cell monolayer controls". • 1. HSV-1 inoculated, non-compound treated HFF monolayers were included as "positive controls"; and • 2.
In the tables, the symbols have the meaning indicated: + = toxic; - = no toxicity; +/- = mild toxicity; ND = not done; T = toxicity effects interfered with CPE rating; CPE = cytopathic effect.

[2] = tested on: VZV; experiment: In vitro assay with VZV on HFF cell monolayers; assay type: cell-based; details: Example 2, Table 17, 0.1 mg/ml, footnote: this toxicity observation is questionable
Experimental: VZV was grown to a CPE level […] of 3-4 + on HFF cell monolayers. The VZV was scraped from the flask, centrifuged and the cell pellet was resuspended in 10 ml of complete medium. 100 to 200 µl of the VZV cell associated inoculum was inoculated onto confluent HFF cell monolayers by absorption for 60 minutes at 37°C. After absorption of the virus, the inoculum was aspirated from the cell monolayers.
The VZV-infected monolayers were rehydrated with medium containing the appropriate concentrations of compounds to be tested. All monolayers were incubated at 37°C. Development of VZV cytopathology was monitored daily for 7 days by inverted light microscopy. Titers were calculated by multiple regression analysis.

## CC1=CC(C)=[N+]2CC[N+]3=C(C)C=C(C)[O][Co-3]23([NH2])([NH3+])[O]1 [Compound 23, reference compound]
[1]; Experiment 2, Table 4, 0.001 mg/ml, 24 h PI
  TOXICITY EFFECTS CONTROLS: -
[1]; Experiment 2, Table 4, 0.001 mg/ml, 48 h PI
  TOXICITY EFFECTS CONTROLS: -
[1]; Experiment 2, Table 4, 0.01 mg/ml, 24 h PI
  TOXICITY EFFECTS CONTROLS: -
[1]; Experiment 2, Table 4, 0.01 mg/ml, 48 h PI
  TOXICITY EFFECTS CONTROLS: -
[1]; Experiment 2, Table 4, 0.1 mg/ml, 24 h PI
  TOXICITY EFFECTS CONTROLS: -
[1]; Experiment 2, Table 4, 0.1 mg/ml, 48 h PI
  TOXICITY EFFECTS CONTROLS: -
[1]; Experiment 2, Table 4, 1 mg/ml, 24 h PI
  TOXICITY EFFECTS CONTROLS: +/-
[1]; Experiment 2, Table 4, 1 mg/ml, 48 h PI
  TOXICITY EFFECTS CONTROLS: +/-
[1]; Experiment 5, Table 12, 48 Hours Post Incubation, 0.001 mg/ml
  TOXICITY EFFECTS CONTROLS: -
[1]; Experiment 5, Table 12, 48 Hours Post Incubation, 0.01 mg/ml
  TOXICITY EFFECTS CONTROLS: -
[1]; Experiment 5, Table 12, 48 Hours Post Incubation, 0.1 mg/ml
  TOXICITY EFFECTS CONTROLS: -
[1]; Experiment 5, Table 12, 48 Hours Post Incubation, 0.5 mg/ml
  TOXICITY EFFECTS CONTROLS: -
[1]; Experiment 5, Table 12, 48 Hours Post Incubation, 1 mg/ml
  TOXICITY EFFECTS CONTROLS: -
[1]; Experiment 5, Table 12, 48 Hours Post Incubation, 2 mg/ml
  TOXICITY EFFECTS CONTROLS: +/-
[1]; Experiment 5, Table 12, 48 Hours Post Incubation, 5 mg/ml
  TOXICITY EFFECTS CONTROLS: +/-
[2]
  VIRUCIDAL EFFICACY 7 Days Post Inoculation Efficacy: T?

## CC1=CC(C)=[N+]2CC[N+]3=C(C)C=C(C)[O][Co-3]23([n+]2c[nH]c(C)c2)([n+]2c[nH]c(C)c2)[O]1 [Compound 97]
[1]; 0.001 mg/ml, 24 hrs post incubation
  TOXICITY EFFECTS CONTROL: -
[1]; 0.001 mg/ml, 48 hrs post incubation
  TOXICITY EFFECTS CONTROL: -
[1]; 0.01 mg/ml, 24 hrs post incubation
  TOXICITY EFFECTS CONTROL: -
[1]; 0.01 mg/ml, 48 hrs post incubation
  TOXICITY EFFECTS CONTROL: -
[1]; 0.1 mg/ml, 24 hrs post incubation
  TOXICITY EFFECTS CONTROL: +/-
[1]; 0.1 mg/ml, 48 hrs post incubation
  TOXICITY EFFECTS CONTROL: +/-
[1]; 0.5 mg/ml, 24 hrs post incubation
  TOXICITY EFFECTS CONTROL: -
[1]; 0.5 mg/ml, 48 hrs post incubation
  TOXICITY EFFECTS CONTROL: -
[1]; 1 mg/ml, 24 hrs post incubation
  TOXICITY EFFECTS CONTROL: +/-
[1]; 1 mg/ml, 48 hrs post incubation
  TOXICITY EFFECTS CONTROL: +/-
[1]; 5 mg/ml, 24 hrs post incubation
  TOXICITY EFFECTS CONTROL: +/-
[1]; 5 mg/ml, 48 hrs post incubation
  TOXICITY EFFECTS CONTROL: +
